# Experimental data reported in patent publication US20070167499A1, “Biaryl linked hydroxamates: preparation and pharmaceutical applications” (A*BIO Pte Ltd., priority 2003, published 2007).
# Test system: Ramos Burkitt-lymphoma cells
# Assay: Apoptosis assay (Annexin V / PI flow cytometry)
# Format: cell-based, human
# Conditions: 48 h after treatment with 10 μM
# From the text: In various therapies such as for proliferative disorders like cancer, the selective induction of apoptosis in proliferating cells such as tumor cells is one of the desirable approaches, and can be mediated by treatment with various anti-proliferative compounds [Blagosklonny MV, Oncogene, 23(16): 2967 (2004); Kaufmann and Eamshaw, Exp Cell Res. 256(1): 42-9 (2000)]. Programmed cell death or apoptosis is the cellular response to stress factors such as DNA damage introduced during conventional anti-cancer treatment. The concerted sequence of events during apoptosis, clearly differentiate this pathway from a non-coordinated form of cell death called necrosis. During the course of apoptosis, characteristic phenotypical cellular changes occur, which include the condensation of chromatin, the shrinkage of cells and finally the fragmentation of chromosomal DNA. One of the very early change caused by apoptotic events occurs in the phospholipids bilayer of the plasma membrane. The phospholipid phosphatidylserine is translocated from the inner to the outer side of the plasma-membrane and, as a result, is exposed to the extracellular space. One way of detecting early apoptotic cells is to determine the amount of phosphatidyl-serine at the extracellular side of the plasma-membrane which is accomplished by the standard flow cytometric method of Annexin V staining. The phospholipids recognizing protein Annexin V binds with high affinity to these inverted and exposed phosphatidyl-serines.
# The ability of the compounds in this invention to induce apoptosis was tested in Ramos Burkitt-lymphoma cells. This cell line is one of the gold standard cell lines commonly used as a tissue culture model for B cell lymphoma. Representative compounds as indicated below were added to 80,000 cells per 500 μl growth medium (RPMI1640 medium supplemented with 2 mM L-Glutamine, 10% heat-inactivated FBS, 1 mM Na-Pyruvate and 10 mM HEPES) in 24 well format at various concentrations. Two days after the start of treatment, cells were collected and subjected to the Annexin V staining protocol following the instructions of the manufacturer (BD Biosciences). By using propidium iodide (PI) as a viability control, cells that stain positive for Annexin V, but negative for PI, are undergoing apoptosis.
structure (smiles),measurement,value
"O=C(Cc1ccc(-c2csc(NC(=O)Cc3ccccc3)n2)s1)NO [Example 1, N-Hydroxy-2-[5-(2-phenylacetylamino-thiazol-4-yl)-thiophen-2-yl]-acetamide]",% cells in late apoptosis (Ramos),76%
